According to US6303641A, “Cyanoamidines as cell proliferation inhibitors” (Leo Pharmaceuticals Products Ltd., priority 1997, dated 2001):

Columns and labels:
Yoshida sarcoma cells = experiment: Survival of Yoshida tumour-bearing rats (Increased Life Span); assay type: in vivo, LEW/Mol inbred female rats; details: once daily from day 3
Description: The prolongation of survival time of tumour-bearing rats was studied in LEW/Mol inbred female rats inoculated with Yoshida sarcoma cells in a number of 2×10^7 cells. Tumour-bearing rats (6 animals per group) were dosed orally once daily from day 3 after the transfer of tumour cells and until death or until the body-weights had increased by 10% as a consequence of tumour proliferation. The mean survival day of treated versus non-treated rats is used to calculate ILS (Increased Life Span). ILS=((mean treated/mean control)-1)*100%.

[1] = tested on: human small cell lung carcinoma (NYH); experiment: Inhibition of tumour cell proliferation in vitro ([3H]thymidine incorporation), NYH; assay type: cell-based; details: 24 hours, read-out: The median inhibition concentration (IC50, nM) of NYH
Description: (§1) The inhibition of tumour cell proliferation was studied using different types of human cancer cell lines. The cell lines under investigation were small cell lung carcinoma (NYH), and breast cancer (MCF-7) using the following general procedure.
(§2) The cells were cultured in vitro for 24 hours in the presence of the compound under investigation. DNA synthesis was measured by incorporation of [3H]thymidine, and the median inhibitory concentrations (IC50) of the compounds were calculated.

[2] = tested on: human breast cancer (MCF-7); experiment: Inhibition of tumour cell proliferation in vitro ([3H]thymidine incorporation), MCF-7; assay type: cell-based; details: MCF7, 24 hours, read-out: The median inhibition concentration (IC50, nM) of MCF-7
Description: as §1, §2

Row | SMILES | IC50 [1] [nM] | IC50 [2] [nM] | Increased life span (ILS) (Yoshida sarcoma cells; 10 mg/kg p.o.) [%] | Increased life span (ILS) (Yoshida sarcoma cells; 20 mg/kg p.o.) [%] | Increased life span (ILS) (Yoshida sarcoma cells; 30 mg/kg p.o.) [%] | Increased life span (ILS) (Yoshida sarcoma cells; 50 mg/kg p.o.) [%]
1 | N#CN=C(NCCCCCCOc1ccc2c(c1)OCO2)c1cccnc1 [Example no. 3, N^2 -Cyano-N^1-(6-(3,4-methylenedioxyphenoxy)hexyl)-3-pyridinecarboxamidine] | 350 | 740 |  |  |  | 
2 | CCCCCCCCNC(=NC#N)c1cccnc1 [Prior art A, N^2 -Cyano-N^1-octyl-3-pyridinecarboxamidine, reference compound] |  | 10000 |  |  |  | 
3 | N#CNC(=Nc1ccncc1)NCCCCOc1ccccc1 [Prior art B, N-Cyano-N'-(4-phenoxybutyl)-N"-4-pyridylguanidine, reference compound] | 380 | 920 |  |  |  | 

Now those with a lower IC50 [2], led by results:

Row | IC50 [1] [nM] | IC50 [2] [nM] | SMILES | Increased life span (ILS) (Yoshida sarcoma cells; 10 mg/kg p.o.) [%] | Increased life span (ILS) (Yoshida sarcoma cells; 20 mg/kg p.o.) [%] | Increased life span (ILS) (Yoshida sarcoma cells; 30 mg/kg p.o.) [%] | Increased life span (ILS) (Yoshida sarcoma cells; 50 mg/kg p.o.) [%]
4 | 39 | 350 | N#CN=C(NCCCCCCOc1ccc(Cl)cc1)c1cccnc1 [Example no. 1, N^2 -Cyano-N^1-(6(4-chlorophenoxy)hexyl)-3-pyridinecarboxamidine] | 60 | 90 | 102 | 
5 | 340 | 540 | COc1ccccc1OCCCCCCNC(=NC#N)c1cccnc1 [Example no. 2, N^2 -Cyano-N^1-(6-(2-methoxyphenoxy)hexyl)-3-pyridinecarboxamidine] |  |  |  | 
6 | 45 | 250 | N#CNC(=Nc1ccncc1)NCCCCCOc1ccccc1 [Prior art C, N-Cyano-N'-(5-phenoxypentyl)-N"-4-pyridylguanidine, reference compound] |  |  |  | 35
